Measurements published in patent US20100267561A1, “HERBICIDAL PYRIDAZINONE DERIVATIVES” (priority 2007, published 2010).

Assays:
Assay in all cases: Test B pre-/postemergence plant response
Assay type in all cases: in vivo
[1] = system: Italian ryegrass (Lolium multiflorum); details: Preemergence
Description: (§1) Seeds of plant species selected from blackgrass (Alopecurus myosuroides), downy bromegrass (Bromus tectorum), green foxtail (Setaria viridis), Italian ryegrass (Lolium multiflorum), wheat (Triticum aestivum), wild oat (Avena fatua), catchweed bedstraw (Galium aparine), bermudagrass (Cynodon dactylon), surinam grass (Brachiaria decumbens), cocklebur (Xanthium strumarium), corn (Zea mays), large crabgrass (Digitaria sanguinalis), woolly cupgrass (Eriochloa villosa), giant foxtail (Setaria faberii), goosegrass (Eleusine indica), johnsongrass (Sorghum halepense), kochia (Kochia scoparia), lambsquarters (Chenopodium album), morningglory (Ipomoea coccinea), eastern black (E.B.) nightshade (Solanum ptycanthum), yellow nutsedge (Cyperus esculentus), pigweed (Amaranthus retroflexus), common ragweed (Ambrosia elation), Russian thistle (Salsola iberica), soybean (Glycine max), common (oilseed) sunflower (Helianthus annuus), and velvetleaf (Abutilon theophrasti) were planted and treated preemergence with test chemicals formulated in a non-phytotoxic solvent mixture which included a surfactant.
(§2) At the same time, plants selected from these crop and weed species and also winter barley (Hordeum vulgare), canarygrass (Phalaris minor), chickweed (Stellaria media) and windgrass (Apera spica-venti) were treated with postemergence applications of some of the test chemicals formulated in the same manner. Plants ranged in height from 2 to 18 cm (1- to 4-leaf stage) for postemergence treatments.
(§3) Plant species in the flooded paddy test consisted of rice (Oryza sativa), umbrella sedge (Cyperus difformis), ducksalad (Heteranthera limosa) and barnyardgrass (Echinochloa crus-galli) grown to the 2-leaf stage for testing. At time of treatment, test pots were flooded to 3 cm above the soil surface, treated by application of test compounds directly to the paddy water, and then maintained at that water depth for the duration of the test. Treated plants and controls were maintained in a greenhouse for 13 to 15 days, after which time all species were compared to controls and visually evaluated. Plant response ratings, summarized in Table B, are based on a scale of 0 to 100 where 0 is no effect and 100 is complete control. A dash (-) response means no test result.

[2] = system: bermudagrass (Cynodon dactylon); details: Preemergence; for Bermudagrass plant response rating: 8 g ai/ha
Description: as §1, §2, §3

[3] = system: blackgrass (Alopecurus myosuroides); details: Preemergence; for Blackgrass plant response rating: 8 g ai/ha
Description: as §1, §2, §3

[4] = system: common ragweed (Ambrosia elation); details: Preemergence
Description: as §1, §2, §3

corn (Zea mays) = details: Preemergence
Description: as §1, §2, §3

[5] = system: eastern black (E.B.) nightshade (Solanum ptycanthum); details: Preemergence
Description: as §1, §2, §3

[6] = system: giant foxtail (Setaria faberii); details: Preemergence
Description: as §1, §2, §3

[7] = system: johnsongrass (Sorghum halepense); details: Preemergence
Description: as §1, §2, §3

[8] = system: lambsquarters (Chenopodium album); details: Preemergence
Description: as §1, §2, §3

[9] = system: morningglory (Ipomoea coccinea); details: Preemergence
Description: as §1, §2, §3

[10] = system: surinam grass (Brachiaria decumbens); details: Preemergence; for Surinam Grass plant response rating: scale 0 to 100
Description: as §1, §2, §3

wild oat (Avena fatua) = details: Preemergence
Description: as §1, §2, §3

[11] = system: yellow nutsedge (Cyperus esculentus); details: Preemergence
Description: as §1, §2, §3

[12] = 16 g ai/ha, scale 0 to 100 (0 no effect, 100 complete control)
[13] = 31 g ai/ha, scale 0 to 100 (0 no effect, 100 complete control)
[14] = scale 0 to 100 (0 no effect, 100 complete control)
[15] = 31 g ai/ha, 0 to 100 scale, 0 no effect, 100 complete control
[16] = 62 g ai/ha, 0 to 100 scale, 0 no effect, 100 complete control

With Cc1cc(-c2ccc(Cl)cc2)nn1-c1c(OS(=O)(=O)C(C)C)cnn(C)c1=O [Compound 50] the “Plant response rating, Ryegrass, Italian” value [1, 12] was 0, the “Plant response rating, Ryegrass, Italian” value [1, 13] was 5 and the “Plant response rating, Ryegrass, Italian” value ([1]; 62 g ai/ha, scale 0 to 100) was 100. For the same compound, the “Ryegrass, Italian plant response rating” value ([1]; 8 g ai/ha, scale 0 to 100) was 0, the “Bermudagrass plant response rating” value [2, 14] was 90 and the “Plant response rating, Bermudagrass” value [2, 12] was 100. For the same compound, the “Plant response rating, Bermudagrass” value [2, 15] was 100, the “Plant response rating, Bermudagrass” value ([2]; 62 g ai/ha, scale 0 to 100) was 100 and the “Plant response rating, Blackgrass” value [3, 12] was 0. The “Plant response rating, Blackgrass” value [3, 15] was 60, the “Plant response rating, Blackgrass” value ([3]; 62 g ai/ha, scale 0 to 100) was 95 and the “Blackgrass plant response rating” value ([3]; scale 0 to 100) was 0. The “Plant response rating, Ragweed” value [4, 12] was 0, the “Plant response rating, Ragweed” value [4, 13] was 0 and the “Plant response rating, Ragweed” value ([4]; 62 g ai/ha, scale 0 to 100) was 0. The “Ragweed plant response rating” value ([4]; 8 g ai/ha, scale 0 to 100) was 0, the “Plant response rating, Corn” value (corn (Zea mays); [12]) was 0 and the “Plant response rating, Corn” value (corn (Zea mays); 62 g ai/ha, scale 0 to 100) was 90. For the same compound, the “Corn plant response rating” value (corn (Zea mays); 8 g ai/ha, scale 0 to 100) was 0, the “Plant response rating, Nightshade, E. B.” value [5, 12] was 0 and the “Plant response rating, Nightshade, E. B.” value [5, 13] was 100. The “Plant response rating, Nightshade, E. B.” value ([5]; 62 g ai/ha, scale 0 to 100) was 100, the “Nightshade, E. B. plant response rating” value ([5]; 8 g ai/ha, scale 0 to 100) was 0 and the “Plant response rating, Foxtail, Giant” value [6, 12] was 98. For the same compound, the “Plant response rating, Foxtail, Giant” value [6, 15] was 100, the “Plant response rating, Foxtail, Giant” value ([6]; 62 g ai/ha, scale 0 to 100) was 100 and the “Foxtail, Giant plant response rating” value ([6]; 8 g ai/ha, scale 0 to 100) was 20. The “Plant response rating, Johnsongrass” value [7, 12] was 95, the “Plant response rating, Johnsongrass” value [7, 15] was 98 and the “Plant response rating, Johnsongrass” value ([7]; 62 g ai/ha, scale 0 to 100) was 100. For the same compound, the “Johnsongrass plant response rating” value ([7]; 8 g ai/ha, scale 0 to 100) was 70, the “Plant response rating, Lambsquarters” value [8, 12] was 65 and the “Plant response rating, Lambsquarters” value [8, 15] was 100. The “Plant response rating, Lambsquarters” value ([8]; 62 g ai/ha, scale 0 to 100) was 100, the “Lambsquarters plant response rating” value ([8]; 8 g ai/ha, scale 0 to 100) was 0 and the “Plant response rating, Morningglory” value [9, 12] was 0. For the same compound, the “Plant response rating, Morningglory” value [9, 13] was 0, the “Plant response rating, Morningglory” value ([9]; 62 g ai/ha, scale 0 to 100) was 30 and the “Morningglory plant response rating” value ([9]; 8 g ai/ha, scale 0 to 100) was 0. For the same compound, the “Plant response rating, Surinam Grass” value [10, 12] was 40, the “Plant response rating, Surinam Grass” value [10, 13] was 90 and the “Plant response rating, Surinam Grass” value [10, 16] was 98. For the same compound, the “Surinam Grass plant response rating” value ([10]; 8 g ai/ha) was 20, the “Plant response rating, Oat, Wild” value (wild oat (Avena fatua); [12]) was 40 and the “Plant response rating, Oat, Wild” value (wild oat (Avena fatua); [13]) was 40. The “Plant response rating, Oat, Wild” value (wild oat (Avena fatua); 62 g ai/ha, scale 0 to 100) was 70, the “Oat, Wild plant response rating” value (wild oat (Avena fatua); 8 g ai/ha, scale 0 to 100) was 20 and the “Plant response rating, Nutsedge, Yellow” value [11, 12] was 0. The “Plant response rating, Nutsedge, Yellow” value [11, 13] was 0, the “Plant response rating, Nutsedge, Yellow” value ([11]; 62 g ai/ha, scale 0 to 100) was 0 and the “Nutsedge, Yellow plant response rating” value ([11]; 8 g ai/ha, scale 0 to 100) was 0.

In the case of Cc1cc(-c2ccc(Cl)cc2)nn1-c1c(OS(=O)(=O)c2ccc(Cl)s2)cnn(C)c1=O [Compound 55], the “Plant response rating, Ryegrass, Italian” value [1, 13] is reported as 90, the “Plant response rating, Ryegrass, Italian” value ([1]; 62 g ai/ha, scale 0 to 100) is reported as 100 and the “Ryegrass, Italian plant response rating” value ([1]; 8 g ai/ha, scale 0 to 100) is reported as 60. For the same compound, the “Ryegrass, Italian plant response rating” value ([1]; 16 g ai/ha, scale 0 to 100) was 70, the “Bermudagrass plant response rating” value [2, 14] was 100 and the “Plant response rating, Bermudagrass” value [2, 12] was 100. For the same compound, the “Plant response rating, Bermudagrass” value [2, 15] was 100, the “Plant response rating, Bermudagrass” value ([2]; 62 g ai/ha, scale 0 to 100) was 100 and the “Plant response rating, Blackgrass” value [3, 12] was 80. The “Plant response rating, Blackgrass” value [3, 15] was 100, the “Plant response rating, Blackgrass” value ([3]; 62 g ai/ha, scale 0 to 100) was 100 and the “Blackgrass plant response rating” value ([3]; scale 0 to 100) was 0. For the same compound, the “Plant response rating, Ragweed” value [4, 13] was 0, the “Plant response rating, Ragweed” value ([4]; 62 g ai/ha, scale 0 to 100) was 0 and the “Ragweed plant response rating” value ([4]; 8 g ai/ha, scale 0 to 100) was 0. The “Ragweed plant response rating” value ([4]; 16 g ai/ha, scale 0 to 100) was 0, the “Plant response rating, Corn” value (corn (Zea mays); [15]) was 80 and the “Plant response rating, Corn” value (corn (Zea mays); 62 g ai/ha, scale 0 to 100) was 95. The “Corn plant response rating” value (corn (Zea mays); 8 g ai/ha, scale 0 to 100) was 0, the “Corn plant response rating” value (corn (Zea mays); 16 g ai/ha, scale 0 to 100) was 0 and the “Plant response rating, Nightshade, E. B.” value [5, 13] was 80. The “Plant response rating, Nightshade, E. B.” value ([5]; 62 g ai/ha, scale 0 to 100) was 100, the “Nightshade, E. B. plant response rating” value ([5]; 8 g ai/ha, scale 0 to 100) was 0 and the “Nightshade, E. B. plant response rating” value ([5]; 16 g ai/ha, scale 0 to 100) was 0. The “Plant response rating, Foxtail, Giant” value [6, 15] was 100, the “Plant response rating, Foxtail, Giant” value ([6]; 62 g ai/ha, scale 0 to 100) was 100 and the “Foxtail, Giant plant response rating” value ([6]; 8 g ai/ha, scale 0 to 100) was 90. For the same compound, the “Foxtail, Giant plant response rating” value ([6]; 16 g ai/ha, scale 0 to 100) was 98, the “Plant response rating, Johnsongrass” value [7, 15] was 70 and the “Plant response rating, Johnsongrass” value ([7]; 62 g ai/ha, scale 0 to 100) was 95. The “Johnsongrass plant response rating” value ([7]; 8 g ai/ha, scale 0 to 100) was 0, the “Johnsongrass plant response rating” value ([7]; 16 g ai/ha, scale 0 to 100) was 15 and the “Plant response rating, Lambsquarters” value [8, 15] was 0. For the same compound, the “Plant response rating, Lambsquarters” value ([8]; 62 g ai/ha, scale 0 to 100) was 0, the “Lambsquarters plant response rating” value ([8]; 8 g ai/ha, scale 0 to 100) was 0 and the “Lambsquarters plant response rating” value ([8]; 16 g ai/ha, scale 0 to 100) was 0. The “Plant response rating, Morningglory” value [9, 13] was 0, the “Plant response rating, Morningglory” value ([9]; 62 g ai/ha, scale 0 to 100) was 0 and the “Morningglory plant response rating” value ([9]; 8 g ai/ha, scale 0 to 100) was 0. The “Morningglory plant response rating” value ([9]; 16 g ai/ha, scale 0 to 100) was 0, the “Plant response rating, Surinam Grass” value [10, 13] was 100 and the “Plant response rating, Surinam Grass” value [10, 16] was 100. For the same compound, the “Surinam Grass plant response rating” value ([10]; 8 g ai/ha) was 15, the “Surinam Grass plant response rating” value ([10]; 16 g ai/ha) was 50 and the “Plant response rating, Oat, Wild” value (wild oat (Avena fatua); [13]) was 35. The “Plant response rating, Oat, Wild” value (wild oat (Avena fatua); 62 g ai/ha, scale 0 to 100) was 70, the “Oat, Wild plant response rating” value (wild oat (Avena fatua); 8 g ai/ha, scale 0 to 100) was 0 and the “Oat, Wild plant response rating” value (wild oat (Avena fatua); 16 g ai/ha, scale 0 to 100) was 0. The “Plant response rating, Nutsedge, Yellow” value [11, 13] was 0, the “Plant response rating, Nutsedge, Yellow” value ([11]; 62 g ai/ha, scale 0 to 100) was 0 and the “Nutsedge, Yellow plant response rating” value ([11]; 8 g ai/ha, scale 0 to 100) was 0. The “Nutsedge, Yellow plant response rating” value ([11]; 16 g ai/ha, scale 0 to 100) was 0.
